Measured values as given in patent US20260262643A1, “HERBICIDAL BENZOXAZINES” (FMC CORPORATION, priority 2022, published 2026).

Legend:
green foxtail [1] = assay: Test C preemergence; type: in vivo, Setaria viridis; conditions: Preemergence, 1000 g ai/ha; visual rating after 10 days, 0 to 100 scale (0 no effect, 100 complete control)
Text: (§1) Seeds of plant species selected from barnyardgrass (Echinochloa crusgalli), blackgrass (Alopecurus myosuroides), corn (Zea mays), foxtail, giant (giant foxtail, Setaria faberi), green foxtail (Setaria viridis), goosegrass (Eleusine indica), kochia (Bassia scoparia), oat, wild (wild oat, Avena fatua), pigweed, palmer (palmer amaranth, palmer pigweed, Amaranthus palmeri), Pigweed, Redroot (redroot pigweed, Amaranthus retroflexus), ragweed (common ragweed, Ambrosia artemisiifolia), ryegrass, Italian ([…] ryegrass, Lolium multiflorum), soybean (Glycine max), and wheat (Triticum aestivum) were planted into a blend of loam soil and sand and treated preemergence with a directed soil spray using test chemicals formulated in a non-phytotoxic solvent mixture which included a surfactant. At the same time, plants selected from these crops and weed species and also galium (catchweed bedstraw, Galium aparine) and horseweed (Erigeron canadensis) were planted in pots containing the same blend of loam soil and sand and treated with postemergence applications of test chemicals formulated in the same manner. Plants ranged in height from 2 to 10 cm and were in the one- to two-leaf stage for the postemergence treatment. Treated plants and untreated controls were maintained in a greenhouse for 10 days, after which time all treated plants were compared to untreated controls and visually evaluated for injury. Plant response ratings, summarized in Table C, are based on a 0 to 100 scale where 0 is no effect and 100 is complete control. A dash (-) response means no test result.

ryegrass, Italian [2] = assay: Test C postemergence; type: in vivo, Lolium multiflorum; conditions: Postemergence, 1000 g ai/ha
Text: as §1

galium = assay: Test C postemergence; type: in vivo, Galium aparine; conditions: Postemergence, 1000 g ai/ha
Text: as §1

barnyardgrass [3] = assay: Test C postemergence; type: in vivo, Echinochloa crusgalli; conditions: Postemergence, 1000 g ai/ha
Text: as §1

kochia [4] = assay: Test C preemergence; type: in vivo, Bassia scoparia; conditions: Preemergence, 1000 g ai/ha; visual rating after 10 days, 0 to 100 scale (0 no effect, 100 complete control)
Text: as §1

barnyardgrass [5] = assay: Test C preemergence; type: in vivo, Echinochloa crusgalli; conditions: Preemergence, 1000 g ai/ha; visual rating after 10 days, 0 to 100 scale (0 no effect, 100 complete control)
Text: as §1

kochia [6] = assay: Test C postemergence; type: in vivo, Bassia scoparia; conditions: Postemergence, 1000 g ai/ha
Text: as §1

green foxtail [7] = assay: Test C postemergence; type: in vivo, Setaria viridis; conditions: Postemergence, 1000 g ai/ha
Text: as §1

ryegrass, Italian [8] = assay: Test C preemergence; type: in vivo, Lolium multiflorum; conditions: Preemergence, 1000 g ai/ha; visual rating after 10 days, 0 to 100 scale (0 no effect, 100 complete control)
Text: as §1

pigweed, palmer [9] = assay: Test C preemergence; type: in vivo, Amaranthus palmeri; conditions: Preemergence, 1000 g ai/ha; visual rating after 10 days, 0 to 100 scale (0 no effect, 100 complete control)
Text: as §1

ragweed [10] = assay: Test C preemergence; type: in vivo, Ambrosia artemisiifolia; conditions: Preemergence, 1000 g ai/ha; visual rating after 10 days, 0 to 100 scale (0 no effect, 100 complete control)
Text: as §1

horseweed = assay: Test C postemergence; type: in vivo, Erigeron canadensis; conditions: Postemergence, 1000 g ai/ha
Text: as §1

pigweed, palmer [11] = assay: Test C postemergence; type: in vivo, Amaranthus palmeri; conditions: Postemergence, 1000 g ai/ha
Text: as §1

blackgrass [12] = assay: Test C preemergence; type: in vivo, Alopecurus myosuroides; conditions: Preemergence, 1000 g ai/ha; visual rating after 10 days, 0 to 100 scale (0 no effect, 100 complete control)
Text: as §1

blackgrass [13] = assay: Test C postemergence; type: in vivo, Alopecurus myosuroides; conditions: Postemergence, 1000 g ai/ha
Text: as §1

ragweed [14] = assay: Test C postemergence; type: in vivo, Ambrosia artemisiifolia; conditions: Postemergence, 1000 g ai/ha
Text: as §1

[15] = 0 to 100 scale, 0 no effect, 100 complete control
[16] = 10 days, visual 0 to 100 scale (0 no effect, 100 complete control)

Row | Structure (SMILES) | Plant response rating, Foxtail, Green (green foxtail [1]) | Plant response rating, Ryegrass, Italian (ryegrass, Italian [2]; [15]) | Plant response rating, Galium (galium; [15]) | Plant response rating, Barnyardgrass (barnyardgrass [3]; [15]) | Plant response rating, Kochia (kochia [4]) | Plant response rating, Barnyardgrass (barnyardgrass [5]) | Plant response rating, Kochia (kochia [6]; [15]) | Plant response rating, Ryegrass, Italian (ryegrass, Italian [8]) | Plant response rating, Pigweed, Palmer (pigweed, palmer [9]) | Plant response rating, Ragweed (ragweed [10]) | Plant response rating, Blackgrass (blackgrass [12]) | Plant response rating, Ryegrass, Italian (ryegrass, Italian [2]; [16]) | Plant response rating, Galium (galium; [16]) | Plant response rating, Barnyardgrass (barnyardgrass [3]; [16]) | Plant response rating, Kochia (kochia [6]; [16]) | Plant response rating, Foxtail, Green (green foxtail [7]; [16]) | Plant response rating, Horseweed (horseweed; [16]) | Plant response rating, Pigweed, Palmer (pigweed, palmer [11]; [16]) | Plant response rating, Blackgrass (blackgrass [13]; [16]) | Plant response rating, Ragweed (ragweed [14]; [16]) | also measured
1 | Cc1ccc(-c2cccc(C(=O)N3C[C@H](C)Oc4c(C)cccc43)c2)nn1 [Compound 160] | 30 | 0 | 50 | 10 | 70 | 30 | 70 | 40 | 20 | 0 | 0 | – | – | – | – | – | – | – | – | – | Plant response rating, Foxtail, Green (green foxtail [7]; [15]): 40; Plant response rating, Horseweed (horseweed; [15]): 0; Plant response rating, Pigweed, Palmer (pigweed, palmer [11]; [15]): 0; Plant response rating, Blackgrass (blackgrass [13]; [15]): 20; Plant response rating, Ragweed (ragweed [14]; [15]): 0
2 | CCOC(=O)c1cncn1-c1cccc(C(=O)N2C[C@H](C)Oc3c(C)cccc32)c1 [Compound 298] | 30 | – | – | – | 50 | 0 | – | 0 | 40 | 0 | 0 | 0 | 20 | 0 | 0 | 0 | 0 | 0 | 0 | 40 | –
3 | Cc1cnc(-c2cccc(C(=O)N3C[C@H](C)Oc4c(C)cccc43)c2)cn1 [Compound 162] | 90 | 40 | 50 | 10 | 0 | 60 | 70 | 70 | 30 | 0 | 30 | – | – | – | – | – | – | – | – | – | Plant response rating, Foxtail, Green (green foxtail [7]; [15]): 10; Plant response rating, Horseweed (horseweed; [15]): 0; Plant response rating, Pigweed, Palmer (pigweed, palmer [11]; [15]): 20; Plant response rating, Blackgrass (blackgrass [13]; [15]): 0; Plant response rating, Ragweed (ragweed [14]; [15]): 20
4 | C[C@H]1CN(C(=O)c2cccc(-c3cn(C)cn3)c2)c2cccc(Cl)c2O1 [Compound 293] | 0 | – | – | – | 0 | 0 | – | 0 | 10 | 0 | 0 | 0 | 0 | 0 | 0 | 0 | 30 | 10 | 0 | 0 | –
5 | COc1ccc(-c2cccc(C(=O)N3C[C@H](C)Oc4c(Cl)cccc43)c2)cn1 [Compound 385] | 90 | – | – | – | 0 | 30 | – | 50 | 50 | 0 | 0 | 10 | 60 | 20 | 70 | 20 | 0 | 70 | 30 | 50 | –
6 | C[C@H]1CN(C(=O)c2cccc(N3CCOCC3)c2)c2cccc(Cl)c2O1 [Compound 166] | 0 | 0 | 20 | 0 | 0 | 0 | 0 | 0 | 0 | 0 | 0 | – | – | – | – | – | – | – | – | – | Plant response rating, Foxtail, Green (green foxtail [7]; [15]): 0; Plant response rating, Horseweed (horseweed; [15]): 0; Plant response rating, Pigweed, Palmer (pigweed, palmer [11]; [15]): 10; Plant response rating, Blackgrass (blackgrass [13]; [15]): 0; Plant response rating, Ragweed (ragweed [14]; [15]): 0
7 | C[C@H]1CN(C(=O)c2cccc(-c3ccn(C)n3)c2)c2cccc(Cl)c2O1 [Compound 205] | 40 | – | – | 10 | 50 | 0 | – | 40 | 60 | 0 | 0 | 40 | 0 | – | 50 | 30 | 0 | 30 | 30 | 20 | –
8 | Cc1nsc(-c2cccc(C(=O)N3C[C@H](C)Oc4c(Cl)cccc43)c2)n1 [Compound 390] | 100 | – | – | – | 50 | 80 | – | 80 | 90 | 30 | 20 | 20 | 80 | 50 | 70 | 20 | 0 | 80 | 50 | 30 | –
